The text below walks through data of PubChem BioAssay (NCI).

Common to all, as to experiment: NCI anticancer screen, dose series, 48 h
Assay [1] has as its system K-562 leukemia.
Assay [2] deals with NCI-H226 lung.
The subject of assay [3] is OVCAR-3 ovarian.
Assay [4] relates to HS 578T breast.

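Where inhibition never reached the appropriate level, the endpoint shown equals the highest concentration tested. Otherwise, values were interpolated linearly from a five-concentration, 48-hour dose response in 96-well plates. TGI marks complete inhibition of growth.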

In the case of `CCn1cnc2c(NC(C)=O)ncnc21`, the TGI in assay [1], in assay [2] and in assay [3] was more than 100 µM throughout.
Consider `Cc1cccc(NC(=S)N/N=C(/c2ccccc2)c2ccccn2)c1`, for which the TGI was found to be 76.1 µM in assay [4], 2.84 µM in assay [1], 6 µM in assay [2] and 11.9 µM in assay [3].
The like results for `c1ccc2c(c1)C(=Nc1ccc(N=C3c4ccccc4-c4ccccc43)cc1)c1ccccc1-2` were, in that order, more than 100 µM, more than 100 µM, more than 100 µM and more than 100 µM.
Take `[N-]=[N+]=NC1=C(c2ccccc2)C(=O)c2cccc3cccc1c23`: the TGI was 48.6 µM in assay [4], more than 100 µM in assay [1] and more than 100 µM in assay [3].
In the case of `COC(=O)C1CCC(=O)N1C(c1ccc2c(c1)OCO2)c1ccc2c(c1)OCO2` (stereo not drawn), the TGI in assay [4], in assay [1], in assay [2] and in assay [3] was more than 100 µM each time.
As to `CCNc1ncnc2n[nH]nc12`, the TGI in assay [1], in assay [2] and in assay [3] was more than 100 µM in each case.
With `CCCCCCCC/C=C/CCCCCCCC1CC(O)C(=O)O1` (stereo not drawn), the TGI in assay [1] was more than 100 µM; in assay [2] it was more than 100 µM; in assay [3], 95.7 µM.
For the molecule `O=C1O[C@H]2[C@@H]3OC(=O)c4cc(O)c(O)c(O)c4-c4c(cc(O)c(O)c4O)C(=O)OC[C@H]2O[C@@H](OC(=O)c2cc(O)c(O)c(O)c2)[C@@H]3OC(=O)c2cc(O)c(O)c3c2[C@@H]2C1=CC(=O)C(O)(O)C2(O)O3` (stereo partly drawn), the TGI was more than 100 µM in assay [4], 94.5 µM in assay [1], more than 100 µM in assay [2] and more than 100 µM in assay [3].
As for `S=C1SC(c2ccc(Cl)cc2)(c2ccc(Cl)cc2)c2ccccc21`, the TGI in assay [4], in assay [1], in assay [2] and in assay [3] was more than 100 µM each time.
On to `CC1(C)CC[C@]2(C(=O)O)CC[C@]3(C)C(=CC[C@@H]4[C@@]5(C)CC[C@H](OC6OC(CO)C(O)C(O)C6OC6OC(CO)C(O)C(O)C6O)C(C)(C)[C@@H]5CC[C@]43C)[C@@H]2C1` (stereo partly drawn), for which the TGI in assay [4] was found to be 51.9 µM; in assay [1] it was 44.6 µM; in assay [2], 34.7 µM; in assay [3], 29.9 µM.
`CN(C)/C=N/S(=O)(=O)c1nn2c(C=O)c(-c3ccc(-c4ccc([N+](=O)[O-])cc4)o3)nc2s1`: the TGI in assay [4] is more than 21.8 µM; in assay [2], more than 64.7 µM; in assay [3], 8.41 µM.
`O=C1C[C@H]2[C@H](c3ccc(Br)cc3)[C@H]3C(=O)c4ccccc4NC(=O)[C@@H]3[C@@]2(O)c2ccccc2N1`: the TGI was more than 100 µM in assay [4], 48.9 µM in assay [1], more than 100 µM in assay [2] and 37 µM in assay [3].
In the case of `CCN(CC)c1nc(N(C)C)c2cc(OC)ccc2n1`, the TGI in assay [4] was more than 100 µM; in assay [1] it was more than 100 µM; in assay [2], 60.1 µM; in assay [3], more than 100 µM.
As for `Cc1cc(C#N)c(Nc2c(C)cccc2[N+](=O)[O-])s1`, the TGI in assay [1], in assay [2] and in assay [3] was more than 100 µM each time.
As to `COc1cc(OC)nc(Nc2c(C#N)c3nc4ccccc4n3c3ccccc23)n1`, the TGI in assay [4], in assay [1], in assay [2] and in assay [3] was more than 100 µM throughout.
Turning to `COC(Cc1ccccc1)NC(C)=O` (stereo not drawn), the TGI in assay [4], in assay [1], in assay [2] and in assay [3] was more than 100 µM each time.
In the case of `Cc1nc(C)c(N2CCN(C#N)CC2)c(=O)[nH]1`, the TGI in assay [4], in assay [1], in assay [2] and in assay [3] was more than 100 µM in each case.
For the molecule `CCc1n[nH]c(=O)n1NC(=O)/C=C\C(=O)O`, the TGI in assay [4], in assay [1], in assay [2] and in assay [3] was more than 100 µM each time.
Consider `CC[C@@]1(O)C(=O)OCc2c1cc1n(c2=O)Cc2c-1nc1ccccc1c2/C=N\NC(=O)C(C)N` (stereo partly drawn), for which the TGI was more than 100 µM in assay [4], 2.43 µM in assay [2] and more than 100 µM in assay [3].
As for `CN(C(=O)c1cccs1)C(=S)N1CCN(c2ccccc2)CC1`, the TGI in assay [4], in assay [1], in assay [2] and in assay [3] was more than 100 µM throughout.
In the case of `C/C(=N\Nc1nc2ccccc2o1)c1ccncn1`, the values for the TGI in assay [4], in assay [1] and in assay [2] were 27.1 µM, more than 100 µM and more than 100 µM, respectively.
In the case of `Cc1c2cccc-2c(OCCO)cc2c1[nH]c1ccccc12`, the TGI in assay [4] is more than 49.6 µM; in assay [1], more than 24.3 µM; in assay [2], 21 µM; in assay [3] it was 3.75 µM.
Regarding `CCOC(=O)C1(Cc2ccccc2)Cc2ccccc2C1=O` (stereo not drawn), the TGI in assay [4] is more than 100 µM; in assay [1] it was more than 100 µM; in assay [2] it was 58.6 µM; in assay [3], more than 100 µM.
For `COc1cc(/C=C(\C#N)c2ccccn2)cc(Br)c1O`, the TGI in assay [1], in assay [2] and in assay [3] was more than 100 µM each time.
On to `CCCCCCCCCCCCP(=O)(O)OCC(N)C(=O)O` (stereo not drawn), for which the TGI in assay [4] is 58.2 µM; in assay [1] it was more than 100 µM; in assay [2] it was more than 100 µM; in assay [3], 36.5 µM.
For `N#CC(c1cc(Cl)ncn1)c1nc2ccccc2s1` (stereo not drawn), the TGI in assay [1] is more than 100 µM; in assay [2], more than 100 µM; in assay [3] it was 22.8 µM.
Regarding `CC(=O)Nc1ccc(-c2nc3ccccc3s2)cc1O`, the TGI in assay [4] was more than 100 µM; in assay [1], more than 100 µM; in assay [2], 45.9 µM; in assay [3] it was more than 100 µM.
